Where “and” joins values, the source holds several entries; their conditions need not be identical. Identical values can stand only once.
Target: T1, UDP-GlcNAc-2-epimerase (GNE) activity of GNE/MNK (Mus musculus, UniProt Q91WG8)
T1 construct: Analysis of GNE/MNK in mouse liver cytosol; from tissue; host or cells: mouse liver cytosol (supernatant of liver homogenate)
T1 sequence (Q91WG8 1-722): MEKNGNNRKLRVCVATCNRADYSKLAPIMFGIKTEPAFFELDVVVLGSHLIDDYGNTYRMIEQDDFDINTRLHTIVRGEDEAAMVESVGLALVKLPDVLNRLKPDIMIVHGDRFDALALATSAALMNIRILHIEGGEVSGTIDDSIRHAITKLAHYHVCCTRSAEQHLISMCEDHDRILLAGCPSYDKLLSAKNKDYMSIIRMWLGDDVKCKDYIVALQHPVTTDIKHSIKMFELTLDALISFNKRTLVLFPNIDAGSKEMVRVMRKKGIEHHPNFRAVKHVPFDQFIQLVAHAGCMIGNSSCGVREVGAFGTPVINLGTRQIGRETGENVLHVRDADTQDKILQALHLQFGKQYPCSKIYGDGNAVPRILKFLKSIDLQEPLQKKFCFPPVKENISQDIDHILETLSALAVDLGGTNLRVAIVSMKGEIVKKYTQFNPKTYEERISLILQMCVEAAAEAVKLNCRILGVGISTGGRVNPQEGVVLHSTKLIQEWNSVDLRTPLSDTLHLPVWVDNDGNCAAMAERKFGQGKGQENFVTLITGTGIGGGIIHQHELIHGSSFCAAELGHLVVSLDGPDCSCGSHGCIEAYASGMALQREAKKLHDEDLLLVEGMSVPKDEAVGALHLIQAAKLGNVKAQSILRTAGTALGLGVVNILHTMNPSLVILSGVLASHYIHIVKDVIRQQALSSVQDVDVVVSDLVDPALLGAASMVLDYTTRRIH
Assay: Colorimetric GNE activity assay in mouse liver cytosol
Format: biochemical
Details: 1 mM UDP-GlcNAc, 45 min at 37 °C, read-out: IC50 for inhibiting GNE activity
Source text: With the potent diselenide compound 14b in hand, we further studied the binding properties of this potent MNK inhibitor, which is to our knowledge the strongest MNK inhibitor reported to date. Diselenide 14b inhibited MNK activity in a dose dependent manner (Fig. 2A). […] Additionally, we tested if diselenide 14b influenced the GNE activity of the bifunctional GNE/MNK. […] To evaluate the specificity of the inhibitor towards other sugar kinases, we performed further inhibition studies using human GlcNAc kinase (GNK) and hexokinase (HK) from yeast (details in ESI ^†).
Evaluation of the influence of 14b on UDP-GlcNAc-2-epimerase activity
To study, if diselenide 14b interferes with the activity of the GNE domain of the bifunctional enzyme, we used enzymes from mouse liver homogenates. […] The sample was incubated at 37 °C for 20 min and the absorbance was […]

CC(=O)N[C@@H]1C(O)O[C@H](C[Se][Se]C[C@H]2OC(O)[C@@H](NC(C)=O)[C@@H](O)[C@@H]2O)[C@@H](O)[C@@H]1O (stereo partly shown) [Compound 14b]
IC50: ~200 µM and 182 µM
